This note sets out measurements from ChEMBL document CHEMBL1122086, “Comparison of the inhibition of Escherichia coli and Lactobacillus casei dihydrofolate reductase by 2,4-diamino-5-(substituted-benzyl)pyrimidines: quantitative structure-activity relationships, X-ray crystallography, and computer graphics in structure-activity analysis” (J Med Chem, 1982).

Dihydrofolate reductase (Lactobacillus casei), sequence (P00381 whole entry): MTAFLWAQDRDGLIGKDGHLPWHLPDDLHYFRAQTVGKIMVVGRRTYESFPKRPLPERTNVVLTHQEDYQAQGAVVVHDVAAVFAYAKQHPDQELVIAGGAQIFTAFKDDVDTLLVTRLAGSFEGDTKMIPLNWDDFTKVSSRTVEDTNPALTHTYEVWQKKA

The first test concerns the target Dihydrofolate reductase (Lactobacillus casei) (UniProt P00381). To be noted: Lacticaseibacillus casei.
Description: Inhibitory activity against dihydrofolate reductase (DHFR) from Lactobacillus casei (expressed as log 1/Kiapp)
`COc1ccc(Cc2cnc(N)nc2N)cc1C(F)(F)F` showed a Log 1/Ki app of 7.3.

Compound `Nc1ncc(Cc2cccc(Cl)c2)c(N)n1` came in with a Log 1/Ki app of 5.9.

Compound `CCCCCCOc1ccc(Cc2cnc(N)nc2N)cc1` had a Log 1/Ki app of 5.73.

As for `Nc1ncc(Cc2cccc(O)c2)c(N)n1`, the Log 1/Ki app amounted to 5.82.

For the compound `Nc1ncc(Cc2cccc(Br)c2)c(N)n1`, the Log 1/Ki app came out at 6.23.

For `Nc1ncc(Cc2cccc(I)c2)c(N)n1`, the Log 1/Ki app was found to be 6.67.

In turn, `Nc1ncc(Cc2cccc(C(F)(F)F)c2)c(N)n1` returned a Log 1/Ki app of 6.16.

In turn, `COc1ccc(Cc2cnc(N)nc2N)cc1OC` had a Log 1/Ki app of 6.92.

As to `Nc1ncc(Cc2ccc(Cl)cc2)c(N)n1`, the Log 1/Ki app came out at 6.19.

Turning to `NC(=O)COc1cccc(Cc2cnc(N)nc2N)c1`, the Log 1/Ki app amounted to 5.96.

`COCCOc1ccc(Cc2cnc(N)nc2N)cc1OCCOC` gave a Log 1/Ki app of 6.51.

For `CS(=O)(=O)Oc1cccc(Cc2cnc(N)nc2N)c1`, the Log 1/Ki app stood at 5.92.

As to `Nc1ncc(Cc2cccc(CO)c2)c(N)n1`, the Log 1/Ki app was found to be 5.67.

Compound `CCCCOc1ccc(Cc2cnc(N)nc2N)cc1` registered a Log 1/Ki app of 6.37.

For the compound `Nc1ncc(Cc2ccc(OC(F)(F)F)cc2)c(N)n1`, the Log 1/Ki app was 6.3.

`Nc1ncc(Cc2ccc(Br)cc2)c(N)n1`: the Log 1/Ki app is 6.21.

Consider `CCCCOCc1cccc(Cc2cnc(N)nc2N)c1`, for which the Log 1/Ki app stood at 5.49.

`Nc1ncc(Cc2cccc(F)c2)c(N)n1` displayed a Log 1/Ki app of 5.38.

Regarding `COCCOc1c(OC)cc(Cc2cnc(N)nc2N)cc1OC`, the Log 1/Ki app was 6.26.

Consider `COCCOc1cccc(Cc2cnc(N)nc2N)c1`, for which the Log 1/Ki app stood at 6.12.

In the case of `Nc1ncc(Cc2ccccc2)c(N)n1`, the Log 1/Ki app was 5.2.

Compound `CC(=O)Nc1ccc(Cc2cnc(N)nc2N)cc1` registered a Log 1/Ki app of 6.05.

In the case of `Nc1ncc(Cc2cc(CO)cc(CO)c2)c(N)n1`, the Log 1/Ki app was found to be 5.73.

Consider `CN(C)c1ccc(Cc2cnc(N)nc2N)cc1`, for which the Log 1/Ki app stood at 6.17.

`COCCOc1ccc(Cc2cnc(N)nc2N)cc1`: the Log 1/Ki app worked out at 6.05.

`Nc1ccc(Cc2cnc(N)nc2N)cc1` had a Log 1/Ki app of 5.47.

The compound `Nc1ncc(Cc2ccc([N+](=O)[O-])cc2)c(N)n1` gave a Log 1/Ki app of 6.

`Nc1ncc(Cc2ccc(O)c(O)c2)c(N)n1` registered a Log 1/Ki app of 5.84.

Compound `Nc1ncc(Cc2ccc(F)cc2)c(N)n1` yielded a Log 1/Ki app of 5.67.

In turn, `Cc1ccc(Cc2cnc(N)nc2N)cc1` came in with a Log 1/Ki app of 5.83.

For the compound `CC(=O)Nc1ccc(Cc2cnc(N)nc2N)cc1[N+](=O)[O-]`, the Log 1/Ki app stood at 6.

`CCCCCCCOc1ccc(Cc2cnc(N)nc2N)cc1` had a Log 1/Ki app of 5.36.

Compound `COCc1cccc(Cc2cnc(N)nc2N)c1` displayed a Log 1/Ki app of 5.64.

Compound `Nc1ncc(Cc2cc(O)cc(O)c2)c(N)n1` registered a Log 1/Ki app of 3.38.

For `Cc1cccc(Cc2cnc(N)nc2N)c1`, the Log 1/Ki app worked out at 5.78.

Another test concerns the target T1, Dihydrofolate reductase (Escherichia coli) (UniProt P0ABQ4).
T1 sequence (whole entry): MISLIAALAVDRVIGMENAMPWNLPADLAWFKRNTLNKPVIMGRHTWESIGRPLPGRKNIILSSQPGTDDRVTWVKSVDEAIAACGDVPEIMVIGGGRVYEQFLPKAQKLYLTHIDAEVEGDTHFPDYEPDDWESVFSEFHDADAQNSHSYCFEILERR
Conditions: not given
The compound `COc1ccc(Cc2cnc(N)nc2N)cc1C(F)(F)F` came in with a Log 1/Ki app of 7.69.

As for `CS(=O)(=O)Oc1cccc(Cc2cnc(N)nc2N)c1`, the Log 1/Ki app stood at 6.92.

With `Nc1ncc(Cc2ccc(OC(F)(F)F)cc2)c(N)n1`, the Log 1/Ki app worked out at 6.57.

`Nc1ncc(Cc2ccc([N+](=O)[O-])cc2)c(N)n1` yielded a Log 1/Ki app of 6.2.

Turning to `CC(=O)Nc1ccc(Cc2cnc(N)nc2N)cc1[N+](=O)[O-]`, the Log 1/Ki app was 6.97.
